The subject of assay [1] is Zika virus. Briefly: EC50 is reported via analysis of immunofluorescence staining. The assay has been performed by Icahn School of Medicine at Mount Sinai. Format: functional, organism-based, Chlorocebus sabaeus, VeroE6/TMPRSS2. Conditions: for EC90: P-gp concentration 2 uM, P-gp inhibitor Elacidar.
Assay [2] relates to dengue virus type 2. Briefly: Functional immunofluorescence assay to measure dose dependent changes in antiviral-drug inhibitory efficacy against Dengue virus type 2 Thailand/16681/84 in Vero E6/TMPRSS2 cells (cotreated with P-gp inhibitor, Elacridar). Cells are treated with antiviral candidates that are serially diluted, following infection, cells are fixed. EC50 is reported via analysis of immunofluorescence staining. The assay has been performed by Icahn School of Medicine at Mount Sinai. Format: organism-based, Chlorocebus sabaeus, VeroE6/TMPRSS2.

The subject of assay [3] is Zika virus. The experiment in a line: Functional CPE-based assay to measure dose dependent changes in antiviral-drug inhibitory efficacy against Zika virus MR766 in Vero E6 miRFP670 cells (cotreated with P-gp inhibitor, CP100356). Cells are treated with antiviral candidates that are serially diluted. EC50 is reported via analysis of MTS assay as a readout of CPE. The assay has been performed by KU Leuven. Format: organism-based, Chlorocebus sabaeus, Vero C1008. To be noted: Zika virus; for EC90: P-gp concentration 500 nM, P-gp inhibitor CP100356.

For assay [4], the system named is dengue virus type 2. The experiment in a line: Functional assay to measure dose dependent changes in antiviral-drug inhibitory efficacy against Dengue virus type 2 New Guinea C in Vero E6 miRFP670 cells (cotreated with P-gp inhibitor, CP100356). Cells are treated with antiviral candidates that are serially diluted, following infection, cells are fixed. EC50 is reported via analysis of fluorescence intensity using high-content imager. The …. To be noted: Dengue virus; for EC90: P-gp concentration 500 nM, P-gp inhibitor CP100356. Format: organism-based, Chlorocebus sabaeus, Vero C1008.

Values joined by “and” are separate entries in the source; they are usually repeats but may differ in a detail not shown here. Equal entries are not always repeated. A value given as a limit tells only on which side of the number the result lay.

Consider `CNC(=O)[C@H](Nc1ccc2c(c1)CNC2)c1cc(Cl)cc(C2CC2)c1`, for which the concentration for an effect of 90% (EC90) is above 16.7 µM in the assay on Zika virus [1] (Zika virus, VeroE6/TMPRSS2, Maximum measured 135.998 %, Minimum measured 64.507 %); above 5.56 µM with Zika virus [1] (Zika virus, VeroE6/TMPRSS2, Baseline response 0 %, Hill slope -0.359, Maximum measured 94.864 %, Maximum response 100 %, Minimum measured 60.283 %, R squared 0.436); above 50 µM in the assay with dengue virus type 2 [2] (Dengue virus, VeroE6/TMPRSS2, Maximum measured 162.297 %, Minimum measured 85.868 %, P-gp concentration 2 uM, P-gp inhibitor Elacidar); 4.25 µM in the assay on Zika virus [3] (Vero C1008, Baseline response 0 %, EC90 CI (lower) 0.152 uM, EC90 CI (upper) 118.856 uM, Hill slope 6.595, Maximum measured 181.208 %, Maximum response 100 %, Minimum measured 1.929 %, R squared 0.623). Besides, the EC50 in the assay on Zika virus [1] (veroe6/tmprss2) was above 16.7 µM; with dengue virus type 2 [2] (Dengue virus, VeroE6/TMPRSS2), above 50 µM; in the assay on Zika virus [3] (Vero C1008), 3.04 µM.
As to `O=C(Nc1cc(Cl)cc([C@H]2CN(Cc3ccccc3)C[C@@H]2c2cccc(-c3nn[nH]n3)c2)c1)OCc1ccccc1`, the concentration giving a half-maximal response (EC50) in the assay on Zika virus [1] (Zika virus, VeroE6/TMPRSS2) came out at 7.98 µM; in the assay with dengue virus type 2 [2] (Dengue virus, VeroE6/TMPRSS2), 3.42 µM; with dengue virus type 2 [4] (Vero C1008), 7.89 µM. In addition, the EC90 in the assay with Zika virus [1] (Zika virus, VeroE6/TMPRSS2, Baseline response 15.017 %, Hill slope -78.318, Maximum measured 79.355 %, Maximum response 65.758 %, Minimum measured 8.182 %, R squared 0.629) is 8.21 µM; with dengue virus type 2 [2] (Dengue virus, VeroE6/TMPRSS2), 5.71 µM; with dengue virus type 2 [4] (Vero C1008, Baseline response 0 %, EC90 CI (lower) 5.235 uM, EC90 CI (upper) 7.261 uM, Hill slope -8.911, Maximum measured 94.205 %, Maximum response 100 %, Minimum measured 1.534 %, R squared 0.94), 10.1 µM.
For `O=C(Nc1ccc2c(c1)CNC2)c1cc(Br)cc2[nH]c(Cc3ccccc3)nc12`, the EC50 with Zika virus [1] (Zika virus, VeroE6/TMPRSS2) is above 1.85 µM; with dengue virus type 2 [2] (Dengue virus, VeroE6/TMPRSS2), above 16.7 µM; with dengue virus type 2 [4] (Vero C1008), 2.23 µM. The EC90 is above 1.85 µM in the assay with Zika virus [1] (Zika virus, VeroE6/TMPRSS2, Maximum measured 133.577 %, Minimum measured 80.808 %); above 16.7 µM in the assay on dengue virus type 2 [2] (Dengue virus, VeroE6/TMPRSS2, Maximum measured 134.005 %, Minimum measured 55.42 %, P-gp concentration 2 uM, P-gp inhibitor Elacidar); above 6.25 µM in the assay with dengue virus type 2 [4] (Vero C1008, Baseline response 0 %, Hill slope -0.825, Maximum measured 88.647 %, Maximum response 100 %, Minimum measured 23.774 %, R squared 0.436).
Consider `O=C(NCc1ccc(F)cc1)[C@H](Nc1ccc2c(c1)CNC2)c1cc(Cl)cc2[nH]ncc12`, for which the EC90 is 0.949 µM with Zika virus [1] (Baseline response 0 %, EC90 CI (lower) 0.003 uM, EC90 CI (upper) 0.037 uM, Hill slope -0.964, Maximum measured 95.888 %, Maximum response 100 %, Minimum measured 15.187 %, R squared 0.753); above 16.7 µM with Zika virus [1] (Baseline response 0 %, Hill slope -0.072, Maximum measured 102.654 %, Maximum response 100 %, Minimum measured 56.434 %, R squared 0.024); above 50 µM in the assay with dengue virus type 2 [2] (Dengue virus, VeroE6/TMPRSS2, Maximum measured 150.332 %, Minimum measured 95.286 %, P-gp concentration 2 uM, P-gp inhibitor Elacidar); above 50 µM in the assay on Zika virus [3] (Vero C1008, Maximum measured 1.197 %, Minimum measured -8.607 %); above 50 µM in the assay with dengue virus type 2 [4] (Vero C1008, Maximum measured 108.299 %, Minimum measured 100.399 %). The EC50 was above 50 µM in the assay with dengue virus type 2 [2] (Dengue virus, VeroE6/TMPRSS2); above 50 µM with Zika virus [3] (Vero C1008); above 50 µM in the assay with dengue virus type 2 [4] (Vero C1008).
Turning to `O=C1Cc2c(cc(Br)cc2C(=O)Nc2ccc3c(c2)CNC3)N1`, the EC90 with Zika virus [1] (Baseline response 0 %, EC90 CI (lower) 0.005 uM, EC90 CI (upper) 0.605 uM, Hill slope -0.732, Maximum measured 85.329 %, Maximum response 60 %, Minimum measured 3.582 %, R squared 0.614) is 21.3 µM; with Zika virus [1] (Baseline response 0 %, Hill slope -0.686, Maximum measured 100.363 %, Maximum response 100 %, Minimum measured 5.777 %, R squared 0.778), above 50 µM; in the assay on dengue virus type 2 [2] (Dengue virus, VeroE6/TMPRSS2, Maximum measured […], Minimum measured 159.027 %, P-gp concentration 2 uM, P-gp inhibitor Elacidar), above 50 µM; in the assay with Zika virus [3] (Vero C1008, Baseline response 0 %, EC90 CI (lower) 4.323 uM, EC90 CI (upper) 45.141 uM, Hill slope 3.545, Maximum measured 169.819 %, Maximum response 100 %, Minimum measured -0.685 %, R squared 0.785), 14 µM; in the assay with dengue virus type 2 [4] (Vero C1008, Maximum measured 133.969 %, Minimum measured 97.1 %), above 50 µM. The EC50 in the assay on Zika virus [1] (Zika virus, VeroE6/TMPRSS2) is 2.09 µM; in the assay with Zika virus [1] (veroe6/tmprss2) it was 1.06 µM; in the assay with dengue virus type 2 [2] (Dengue virus, VeroE6/TMPRSS2) it was above 50 µM; in the assay with Zika virus [3] (Vero C1008) it was 7.52 µM; in the assay with dengue virus type 2 [4] (Vero C1008), above 50 µM.
Turning to `NCc1cccc(NC(=O)c2cc(Cl)cc(-n3cccc3)c2)c1`, the EC50 was above 5.56 µM in the assay with Zika virus [1] (Zika virus, VeroE6/TMPRSS2); 13.9 µM in the assay with dengue virus type 2 [2] (Dengue virus, VeroE6/TMPRSS2); 14.4 µM with dengue virus type 2 [4] (Vero C1008). For the same molecule, the EC90 in the assay with Zika virus [1] (Zika virus, VeroE6/TMPRSS2, Maximum measured 124.363 %, Minimum measured 74.851 %) was above 5.56 µM; in the assay with dengue virus type 2 [2] (Dengue virus, VeroE6/TMPRSS2, Baseline response 0 %, Hill slope -2.713, Maximum measured 77.83 %, Maximum response 65.791 %, Minimum measured 24.724 %, P-gp concentration 2 uM, R squared 0.597, P-gp inhibitor Elacidar), above 16.7 µM; in the assay on dengue virus type 2 [4] (Vero C1008, Baseline response 0 %, EC90 CI (lower) 7.414 uM, EC90 CI (upper) 19.74 uM, Hill slope -12.44, Maximum measured 108.218 %, Maximum response 100 %, Minimum measured 0.325 %, R squared 0.952) it was 17.2 µM.
As to `NCc1cccc(NC(=O)c2cc(Cl)cc(CN)c2)c1`, the EC90 was above 50 µM with Zika virus [1] (Zika virus, VeroE6/TMPRSS2, Maximum measured 123.027 %, Minimum measured 86.3 %); above 3.33 µM with Zika virus [1] (Zika virus, VeroE6/TMPRSS2, Baseline response 0 %, Hill slope -0.468, Maximum measured 130.938 %, Maximum response 100 %, Minimum measured 51.052 %, R squared 0.396); above 10 µM in the assay on dengue virus type 2 [2] (Baseline response 0 %, Hill slope -0.259, Maximum measured 118.193 %, Maximum response 100 %, Minimum measured 55.278 %, P-gp concentration 2 uM, R squared 0.275, P-gp inhibitor Elacidar); above 50 µM in the assay with dengue virus type 2 [2] (Baseline response 0 %, Hill slope -0.379, Maximum measured 148.524 %, Maximum response 100 %, Minimum measured 29.621 %, P-gp concentration 2 uM, R squared 0.276, P-gp inhibitor Elacidar). Besides, the EC50 was above 50 µM in the assay with Zika virus [1] (veroe6/tmprss2); > 10 µM and 48.2 µM in the assay on dengue virus type 2 [2] (veroe6/tmprss2).
As for `NCCCCc1ccc(NC(=O)c2cc(Cl)cc(NC(=O)OCc3ccccc3)c2)cc1`, the EC50 in the assay on Zika virus [1] (Zika virus, VeroE6/TMPRSS2) was above 5.56 µM; in the assay on dengue virus type 2 [2] (Dengue virus, VeroE6/TMPRSS2), above 5.56 µM; with dengue virus type 2 [4] (Vero C1008), 4.18 µM. Also, the concentration for an effect of 90% (EC90) in the assay on Zika virus [1] (Zika virus, VeroE6/TMPRSS2, Maximum measured 140.797 %, Minimum measured 81.401 %) was above 5.56 µM; in the assay on dengue virus type 2 [2] (Dengue virus, VeroE6/TMPRSS2, Maximum measured 145.088 %, Minimum measured 103.355 %, P-gp concentration 2 uM, P-gp inhibitor Elacidar) it was above 5.56 µM; in the assay with dengue virus type 2 [4] (Vero C1008, Baseline response 0 %, EC90 CI (lower) 1.854 uM, EC90 CI (upper) 4.634 uM, Hill slope -6.186, Maximum measured 92.478 %, Maximum response 100 %, Minimum measured 7.244 %, R squared 0.772) it was 5.96 µM.
For `CC(C)OC(=O)Nc1cc(Cl)cc(C(=O)Nc2cccc(CN)c2)c1`, the 50% effective concentration (EC50) with Zika virus [1] (Zika virus, VeroE6/TMPRSS2) was above 16.7 µM; with dengue virus type 2 [2] (Dengue virus, VeroE6/TMPRSS2), above 16.7 µM; with dengue virus type 2 [4] (Vero C1008), above 6.25 µM. Besides, the EC90 with Zika virus [1] (Zika virus, VeroE6/TMPRSS2, Maximum measured 132.205 %, Minimum measured 71.008 %) was above 16.7 µM; with dengue virus type 2 [2] (Dengue virus, VeroE6/TMPRSS2, Baseline response 0 %, Hill slope -10.347, Maximum measured 131.012 %, Maximum response 100 %, Minimum measured 66.05 %, P-gp concentration 2 uM, R squared 0.241, P-gp inhibitor Elacidar), above 16.7 µM; in the assay with dengue virus type 2 [4] (Vero C1008, Maximum measured 143.842 %, Minimum measured 98.266 %), above 6.25 µM.
As to `NS(=O)(=O)c1ccc(C2CCN(Cc3c[nH]c4ccccc34)CC2)cc1`, the concentration for an effect of 90% (EC90) was above 10 µM in the assay with Zika virus [1] (Zika virus, VeroE6/TMPRSS2, Maximum measured 220.71 %, Minimum measured 69.091 %); above 50 µM in the assay on Zika virus [1] (Zika virus, VeroE6/TMPRSS2, Baseline response 0 %, Hill slope -0.394, Maximum measured 150.63 %, Maximum response 100 %, Minimum measured 65.565 %, R squared 0.026); above 50 µM with dengue virus type 2 [2] (Dengue virus, VeroE6/TMPRSS2, Baseline response 0 %, Hill slope -0.438, Maximum measured 120.121 %, Maximum response 100 %, Minimum measured 70.269 %, P-gp concentration 2 uM, R squared 0.213, P-gp inhibitor Elacidar). Further, the EC50 was above 50 µM in the assay on Zika virus [1] (veroe6/tmprss2) and above 50 µM in the assay with dengue virus type 2 [2] (Dengue virus, VeroE6/TMPRSS2).

Usually EC90 stands for the point of the concentration-response curve where the effect stands at 90%. Usually EC50 stands for the concentration at which the effect is half-maximal.

Values taken from ChEMBL document CHEMBL5661943, “ASAP - In vitro antiviral effect” (2024).
